Here are results for 16 compounds from patent US7368453B2, “Quinazolinone compounds with reduced bioaccumulation” (Chiron Corporation, priority 2003, dated 2008).

Read-outs that look alike come from different tables or passages of the source.

The data set is described as follows: Tissue half-life (t1/2) and Cmax in plasma, brain, kidney and liver after oral administration to CD-1 mice. Format: in vivo, mouse. Particulars: for half-life: male, mouse. The protocol:
In vivo studies were conducted to observe the effect of the compounds of the invention in the subject animal. Male CD-1 mice, body weight of 20 grams at arrival, were used in these studies. Mice were given 30 mg/kg of compound in HPMC/Tween solution or suspension via oral gavage. Plasma, brain, and liver samples were collected at time periods of 1, 2, 4, 8, and 24 hours post dosing. One mouse was used per time point. Thus, a total of 5 mice were used for each compound tested. For sample collection, mice were euthanized with CO2. Blood samples were taken by cardiac puncture and kept on ice. Brain and liver samples were collected immediately after bleeding and the samples were kept on dry ice. For calculation of tissue half-lives (t1/2s), the terminal rate constant k was estimated by the absolute value of the slope of a log-linear regression of the terminal phase of the tissue concentration-time profile. The tissue half-life t1/2 is ln(2)/k.
The following table includes t1/2 data for plasma, brain, kidney, and liver obtained after oral administration.
Tissue Half-Life Data for Various Quinazolinone Compounds (PO)

Where [1] appears, read: brain t1/2, 30 mg/kg oral gavage (PO), read-out: Half-Lives (h) Brain (converted).
Where [2] appears, read: liver t1/2, 30 mg/kg oral gavage (PO), read-out: Half-Lives (h) Liver (converted).
Setting [3] is: plasma t1/2, 30 mg/kg oral gavage (PO), read-out: Half-Lives (h) Plasma (converted).
The mark [4] stands for this setting: kidney t1/2, 30 mg/kg oral gavage (PO), read-out: Half-Lives (h) Kidney (converted).

Regarding `COc1ccc(CCn2c(-c3ncc[nH]3)nc3cc(NC(=N[C@H]4C[C@H]5C[C@@H]([C@@H]4C)C5(C)C)N4CCN[C@@H](CF)C4)ccc3c2=O)c(F)c1` [Example 255, (3R)-N-[3-[2-(2-fluoro-4-methoxyphenyl)ethyl]-2-(1H-imidazoi-2-yl)-4-oxo-3,4-dihydroquinazolin-7-yl]-3-(fluoromethyl)-N′-[(1S,2S,3S,5R)-2,6,6-trimethylbicyclo[3.1.1]hept-3-yl]piperazine-1-carboximidamide], the half-life was 25 h under setting [1], 7.3 h under setting [2] and 5.6 h under setting [3].
For the compound `COc1ccc(CCn2c(-c3nccs3)nc3cc(NC(=N[C@H]4C[C@H]5C[C@@H]([C@@H]4C)C5(C)C)N4CCN[C@@H](CF)C4)ccc3c2=O)c(F)c1` [Example 254, (3R)-N-[3-[2-(2-fluoro-4-methoxyphenyl)ethyl]-4-oxo-2-(1,3-thiazol-2-yl)-3,4-dihydroquinazolin-7-yl]-3-(fluoromethyl)-N′-[(1 S,2S,3S,5R)-2,6,6-trimethylbicyclo[3.1.1]hept-3-yl]piperazine-1-carboximidamide], the half-life is, setting by setting: under setting [1], 11 h; under setting [4], 9.6 h; under setting [2], 20 h; under setting [3], 15 h.
As for `COc1ccc(CCn2cnc3cc(N/C(=N/[C@H]4C[C@@H]5C[C@H]([C@@H]4C)C5(C)C)N4CCC[C@H]4CO)ccc3c2=O)c(F)c1` [Example 281, (2S)-N-(3-{2-[2-fluoro-(methyloxy)phenyl]ethyl]-4-oxo-3,4-dihydro-7-quinazolinyl)-2-(hydroxymethyl)-N′-[(1R,2S,3S,5S)-2,6,6-trimethylbicyclo[3.1.1]hept-3-yl]-1-pyrrolidinecarboximidamide], the half-life runs as follows: under setting [4], 6.5 h; under setting [3], 5.3 h.
For `C[C@@H]1C(/N=C(/Nc2ccc3c(=O)n(CCc4ccc(Cl)cc4Cl)c(-c4cnccn4)nc3c2)N2CC(=O)N[C@@H](C)C2)C[C@H]2C[C@@H]1C2(C)C` (stereo partly drawn) [Example 229, (3S)-N-{3-[2-(2,4-dichlorophenyl)ethyl]-4-oxo-2-pyrazin-2-yl-3,4-dihydroquinazolin-7-yl}-3-methyl-5-oxo-N′-[(1S,2S3S,5R)-2,6,6-trimethylbicyclo[3.1.1]hept-3-yl]piperazine-1-carboximidamide], the half-life is, setting by setting: under setting [1], 13 h; under setting [2], 16 h; under setting [3], 9 h.
As to `COc1ccc(CCn2c(-c3cccnc3)nc3cc(NC(=N[C@H]4C[C@H]5C[C@@H]([C@@H]4C)C5(C)C)N4CCN(O)[C@@H](C)C4)ccc3c2=O)c(F)c1` [Example 245, (3S)-N-{3[2(2-fluoro-4-methoxyphenyl)ethyl]-4-oxo-2-pyridin-3-yl-3,4-dihydroquinazolin-7-yl}-4-hydroxy-3-methyl-N′-[(1S,2S,3S,5R)-2,6,6-trimethylbicyclo[3.1.1]hept-3-yl]piperazine-1-carboximidamide], the half-life under setting [1] is 3.1 h, the half-life under setting [4] is 1.7 h, the half-life under setting [2] is 5.2 h and the half-life under setting [3] was 2.2 h.
Regarding “(3S)-N-{3-[2-(4-chlorophenyl)ethyl]-4-oxo-2-piperidin-3-yl-3,4-dihydroquinazolin-7-yl}-3-methyl-5-oxo-N′-[(1S,2S,3S,5R)-2,6,6-trimethylbicyclo[3.1.1]hept-3-yl]piperazine-1-carboximdamide [Example 241]”, the “Half-Lives (h) Brain” value (brain t1/2, 30 mg/kg oral gavage (PO)) turned out to be 51 h. For the same compound, the “Half-Lives (h) Liver” value (liver t1/2, 30 mg/kg oral gavage (PO)) is reported as 17 h. Besides, the “Half-Lives (h) Plasma” value (plasma t1/2, 30 mg/kg oral gavage (PO)) came to 21 h.
Turning to `COc1ccc(CCn2cnc3cc(N/C(=N/[C@H]4C[C@@H]5C[C@H]([C@@H]4C)C5(C)C)N4C[C@@H](C)N(C#N)[C@@H](C)C4)ccc3c2=O)c(F)c1` [Example 301, (3R,5S)-4-cyano-N-(3-{-[2-fluoro-4-(methyloxy)phenyl]ethyl}-4-oxo-3,4-dihydro-7-quinazolinyl]-3,5-dimethyl-N′-[(1R,2S,3S,5S)-2,6,6-trimethylbicyclo[3.1.1]hept-3-yl]-1-piperazinecarboximidamide], the half-life by setting is: under setting [4], 9.4 h; under setting [2], 3.6 h; under setting [3], 2.5 h.
Consider `COc1ccc(CCn2cnc3cc(N/C(=N/C4C[C@@H]5C[C@H]([C@@H]4C)C5(C)C)N4CC(C)CC(C)C4)ccc3c2=O)c(F)c1` (stereo partly drawn) [Example 274, N-(3-{2-[2-fluoro-4-(methyloxy)phenyl]ethyl}-4-oxo-3,4-dihydro-7-quinazolinyl)-3,5-dimethyl-N-[(1R,2S,5S)-2,6,6-trimethylbicyclo[3.1.1]hept-3-yl]-1-piperidinecarboximidamide], for which the half-life under setting [4] was 2.7 h, the half-life under setting [2] is 2.3 h and the half-life under setting [3] was 2.1 h.
For the compound `C[C@@H]1[C@@H](N=C(Nc2ccc3c(=O)n(CCc4ccc(Cl)cc4Cl)c(-c4cnccn4)nc3c2)N2CCN[C@@H](C(F)F)C2)C[C@H]2C[C@@H]1C2(C)C` [Example 228, (3R)-N-{3-[2-(2,4-dichlorophenyl)ethyl]-4-oxo-2-pyrazin-2-yl-3,4-dihydroquinazolin-7-yl}-3-(difluoromethyl)-N′-[(1S,2S,3S,5R)-2,6,6-trimethylbicyclo[3.1.1]hept-3-yl]piperazine-1-carboximidamide], the half-life under setting [2] was 9.1 h.
With `COc1ccc(CCn2c(-c3nnc[nH]3)nc3cc(NC(=N[C@H]4C[C@H]5C[C@@H]([C@@H]4C)C5(C)C)N4CCN[C@@H](CF)C4)ccc3c2=O)c(F)c1` [Example 252, (3R)-N-[3-[2-(2-fluoro-4-methoxyphenyl)ethyl]-4-oxo-2-(4H-1,2,4-triazol-3-yl)-3,4-dihydroquinazolin-7-yl]-3-(fluoromethyl)-N′-[(1S,2S,3S,5R)-2,6,6-trimethylbicyclo[3.1.1]hept-3-yl]piperazine-1-carboximidamide], the half-life by setting is: under setting [4], 8.4 h; under setting [2], 16 h.
Take `COc1ccc(CCn2c(NC3CC3)nc3cc(NC(=N[C@H]4C[C@H]5C[C@@H]([C@@H]4C)C5(C)C)N4CCN[C@@H](CF)C4)ccc3c2=O)c(F)c1` [Example 258, (3R)-N-{2-(cyclopropylamino)-3-(2-(2-fluoro-4-methoxyphenyl)ethyl]-4-oxo-3,4-dihydroquinazolin-7-yl}-3-(fluoromethyl)-N′-[(1S,2S,3S,5R)-2,6,6-trimethylbicyclo[3.1.1]hept-3-yl]piperazine-1-carboximidamide]: the half-life runs as follows: under setting [2], 2.9 h; under setting [3], 5.3 h.
Consider `C[C@@H]1[C@@H](N=C(Nc2ccc3c(=O)n(CCc4ccc(Cl)cc4)c(-c4cnccn4)nc3c2)N2CCN[C@@H](C(F)F)C2)C[C@H]2C[C@@H]1C2(C)C` [Example 235, (3R)-N-{3-[2-(4-chlorophenyl)ethyl]-4-oxo-2-pyrazin-2-yl-3,4-dihydroquinazolin-7-yl}-3-(difluoromethyl)-N′-[(1 S,2S,3S,5R)-2,6,6-trimethylbicyclo[3.1.1]hept-3-yl]piperazine-1-carboximidamide], for which the half-life under setting [1] was 6.1 h, the half-life under setting [2] is 5.6 h and the half-life under setting [3] is 4.7 h.
In the case of `COc1ccc(CCn2c(-c3ccncc3)nc3cc(NC(=N[C@H]4C[C@H]5C[C@@H]([C@@H]4C)C5(C)C)N4CCN[C@@H](CF)C4)ccc3c2=O)c(F)c1` [Example 250], the half-life under setting [1] was 3 h, the half-life under setting [4] is 5.7 h, the half-life under setting [2] was 8.8 h and the half-life under setting [3] was 26 h.
As to `COc1ccc(CCn2c(-c3cccnc3)nc3cc(NC(=N[C@H]4C[C@H]5C[C@@H]([C@@H]4C)C5(C)C)N4CCN[C@@H](C(F)F)C4)ccc3c2=O)c(F)c1` [Example 220, (3R)-3-(difluoromethyl)-N-{3-[2-(2-fluoro-4-methoxyphenyl)ethyl]-4-oxo-2-pyridin-3-yl-3,4-dihydroquinazolin-7-yl}-N′-[(1S,2S,3S,5R)-2,6,6-trimethylbicyclo[3.1.1]hept-3-yl]piperazine-1-carboximidamide], the half-life under setting [1] was 3.1 h, the half-life under setting [2] was 2.5 h and the half-life under setting [3] was 2.1 h.
The like results for `C[C@@H]1[C@@H](N=C(Nc2ccc3c(=O)n(CCc4ccc(Br)cc4F)c(-c4cnccn4)nc3c2)N2CCN[C@@H](C(F)F)C2)C[C@H]2C[C@@H]1C2(C)C` [Example 233, (3R)-N-{3-[2-(4-bromo-2-fluorophenyl)ethyl]-4-oxo-2-pyrazin-2-yl-3,4-dihydroquinazolin-7-yl}-3-(difluoromethyl)-N′-[(1S,2S,3S,5R)-2,6,6-trimethylbicyclo[3.1.1]hept-3-yl]piperazine-1-carboximidamide] were, in that order, 15 h, 44 h and 6.4 h.
Regarding `COc1ccc(CCn2c(-c3cccnc3)nc3cc(NC(=N[C@H]4C[C@H]5C[C@@H]([C@@H]4C)C5(C)C)N4CC(=O)N[C@@H](C)C4)ccc3c2=O)c(F)c1` [Example 216, (3S)-N-{3-[2-(2-fluoro-4-methoxyphenyl)ethyl]-4-oxo-2-pyridin-3-yl-3,4-dihydroquinazolin-7-yl}-3-methyl-5-oxo-N′-[(1S,2S,3S,5R)-2,6,6-trimethylbicyclo[3.1.1]hept-3-yl]piperazine-1-carboximidamide], the half-life is 14 h under setting [1], 2.7 h under setting [4], 2.1 h under setting [2] and 1.9 h under setting [3].
